Measured values as given in patent US20110136768A1 (THE GENERAL HOSPITAL CORPORATION, priority 2008, published 2011).
Where a name gives a salt, the structure may show the parent alone.

How the values were obtained:
patients with NSF [1] = experiment: Knee joint flexion contracture measured with a goniometer in treated NSF patients; type: in vivo, human
Description: (§1) Two patients diagnosed with NSF that was associated with gadolinium exposure were assessed and treated with orally administered imatinib mesylate over an extended period of time. Their progress was assessed as were any side effects of the treatment.
Loss of knee joint extension (flexion contracture) was assessed by measuring maximal passive knee extension, with the patient in a supine position, using a goniometer. The center of the goniometer was placed at the lateral femoral condyle, with the proximal arm positioned along the longitudinal axis of the femur and the distal arm aligned with the long axis of the tibia. Measurements were rounded to the nearest multiple of 5 degrees. Although flexion contractures appeared symmetric in both patients, the knee with the greater flexion contracture at baseline was assessed for change at subsequent visit.

patients with NSF [2] = experiment: Skin biopsy histology before and after IM (hematoxylin & eosin, type I procollagen staining); type: in vivo, human
From the text: FIG. 2 (A and B) are photographs of skin biopsies from Patient 1 before (FIG. 2A) and after 15 weeks (FIG. 2B) of treatment with IM, at similar magnification and under equivalent lighting. […] (hematoxylin & eosin staining, 12.5× total magnification). The grey line in each panel identifies the level of the eccrine ducts, structures that occur at a relatively uniform depth in a particular region of the body.
FIG. 3 (A and B) are photographs of skin biopsies from Patient 1 before (FIG. 3A) and after 15 weeks (FIG. 3B) of treatment with IM, at similar magnification and under equivalent lighting. […] (type I procollagen immunohistochemical staining, 12.5× magnification) The grey line in each panel identifies the level of the eccrine ducts.
Skin biopsies performed both before and after initial dosing of Patient 1 with IM were compared. Both specimens were obtained from the same anatomic area, with the second biopsy taken immediately adjacent to the resolved scar from the prior procedure, but each biopsy had been performed using different technique (The first biopsy was an excisional biopsy, the second was a punch biopsy). […] Furthermore, in the specimen obtained after IM treatment, fewer type I procollagen^+ cells were present in the upper dermis (FIG. 3B). The second biopsy contained 124 ppm (μg/g, dry weight) of gadolinium, essentially unchanged from that of the pretreatment biopsy (High et al.: Gadolinium is quantifiable within the tissue of patients with nephrogenic systemic fibrosis, J Am Acad Dermatol 2007).

patients with NSF [3] = experiment: Adverse effects in the two treated NSF patients; type: in vivo, human; settings: both patients
Description: as §1
Patient 1 developed gastrointestinal upset that resolved when corticosteroid replacement with 7.5 mg/day oral prednisone was initiated to treat adrenal insufficiency 17 weeks after re-initiation of IM, despite continuation of IM.

patients with NSF [4] = experiment: Skin involvement by modified Rodnan skin score (mRSS) in treated NSF patients; type: in vivo, human
Description: as §1
They were offered treatment with imatinib mesylate. […] Shortly thereafter, […] PD catheter stopped functioning and they began to undergo HD.
To determine whether a higher dose of IM might yield further improvement in their skin changes, their daily dose was increased from 400 mg to 600 mg at the end of January 2007. Because of a hospitalization in February 2007, for evaluation and treatment of chronic gastrointestinal bleeding, they stopped taking IM for 2 weeks. They resumed taking daily oral IM 600 mg, one week later, but they again stopped taking it after 6 days, when they underwent elective surgical repair of an abdominal hernia. They once again resumed taking oral IM 400 mg daily in May 2007. However, because of difficulty controlling their INR, they discontinued IM two weeks later. Off of IM, their Coumadin anticoagulation has been managed more easily.
Skin involvement was assessed using the modified version of the Rodnan skin score (mRSS). The same examiner evaluated each patient at each visit. Seventeen skin sites were evaluated: the face, upper arms, […], dorsum of the hands, fingers, chest, abdomen, thighs, […], and feet. Each site was graded: 0=normal skin, 1=thickened skin, 2=thickened and unable to pinch, or 3=thickened and unable to move. The maximum total score is 51.

patients with NSF [5] = settings: two patients; cited from earlier work

SMILES | knee joint flexion contractures (patients with NSF [1]; Patient 1, off IM for 9 weeks, both knees) | knee joint flexion contractures (patients with NSF [1]; Patient 1, week 6 of IM, with physical therapy) | knee joint flexion contractures (patients with NSF [1]; Patient 1, week 15 of IM, with physical therapy) | knee joint flexion contractures (patients with NSF [1]; Patient 2, after discontinuing IM, none when they began IM) | staining for type I procollagen in skin biopsy (patients with NSF [2]; Patient 1, after 15 weeks of IM versus before) | fibrosis in skin biopsy (patients with NSF [2]; Patient 1, after 15 weeks of IM versus before, hematoxylin & eosin) | type I procollagen+ cells in the upper dermis (patients with NSF [2]; Patient 1, after IM treatment versus before) | congestive heart failure (patients with NSF [3]) | adverse effect related to IM (patients with NSF [3]; corrected by dialysis treatment) | mRSS (patients with NSF [4]; Patient 1, after oral IM 400 mg daily over 15 weeks) | mRSS (patients with NSF [4]; Patient 1, after subsequent 9 weeks without IM) | mRSS (patients with NSF [4]; Patient 1, baseline before oral IM 400 mg daily, maximum total score 51) | mRSS (patients with NSF [4]; Patient 1, within 5 weeks of resuming oral IM 400 mg daily (from 33)) | mRSS (patients with NSF [4]; Patient 2, baseline before oral IM 400 mg daily) | mRSS (patients with NSF [4]; Patient 2, while taking oral IM 400 mg daily) | mRSS (patients with NSF [4]; Patient 2, within 5 weeks of stopping IM) | skin thickening and joint mobility (patients with NSF [5])
Cc1ccc(NC(=O)c2ccc(CN3CCN(C)CC3)cc2)cc1Nc1nccc(-c2cccnc2)n1 [imatinib mesylate] | 25 ° | 25 ° | 10 ° | knee joint flexion contractures developed that gradually progressed over time | less staining for type I procollagen | less fibrosis | fewer | Neither patient developed congestive heart failure | fluid retention | 16 | 33 | 42 | 10 | 12 | 2 | 15 | –
CC(=O)CCCCn1c(=O)c2c(ncn2C)n(C)c1=O [pentoxyphyline] | – | – | – | – | – | – | – | – | – | – | – | – | – | – | – | – | Decreased skin thickening and improved joint mobility
